From patent US10730864B2, “RAD51 inhibitors and uses thereof” (THE REGENTS OF THE UNIVERSITY OF CALIFORNIA, priority 2015, dated 2020)
Where two headings read alike, the source gives them in different places.

System: triple-negative human breast cancer cell line MDA-MB-468
Assay: XTT cell killing / growth inhibition assay, MDA-MB-468
Type: cell-based
Protocol: Standard XTT assays with a four-day drug treatment procedure were performed to measure the dose dependent cytotoxicity of IBR analogs in cultured cells. In brief, cells were plated on 96-well dishes one day before the drug treatment, followed by drug treatment on day 2 and XTT assay on day 6 after drug addition by using a commercial cell proliferation kit (Roche Scientific) following the instructions.
Triplicate sets were measured and compiled for final data presentation.
To test the possibility of inhibiting triple-negative breast cancer, the newly synthesized IBR2 analogues IBR101-124 were screened of their growth inhibition abilities using an XTT assay.

[1] = MDA-MB-468, XTT assay, four-day drug treatment, read-out: IC50
[2] = growth inhibition, raw dataset for SAR analysis
[3] = Homo sapiens, 96 h, MDA-MB-468, XTT assay, four-day drug treatment, read-out: IC50
[4] = Homo sapiens, MDA-MB-468, growth inhibition, raw dataset for SAR analysis, read-out: pIC50 (converted)

Row | Structure (SMILES) | IC50 [1] [µM] | pIC50 [2] | IC50 compared with that of the parental compound IBR2 (in words) (MDA-MB-468) | growth inhibition activity (in words) (MDA-MB-468, XTT assay) | IC50 [3] [µM] | IC50 [4] [µM]
1 | O=S(=O)(Cc1ccc(C(F)(F)F)cc1)N1CCc2ccccc2[C@H]1c1c[nH]c2ccccc12 [IBR114] | 20.7 | 4.68 |  |  |  | 
2 | O=S(=O)(Cc1ccc(F)cc1)N1CCc2ccccc2[C@H]1c1c[nH]c2ccccc12 [IBR108] | 25.7 | 4.59 |  |  |  | 
3 | O=S(=O)(Cc1ccc(F)cc1)N1CCc2ccccc2[C@@H]1c1c[nH]c2ccccc12 [IBR107] | 11.2 | 4.95 | slightly lower |  |  | 
4 | O=S(=O)(Cc1ccccc1)N1CC=Cc2ccccc2[C@@H]1c1c[nH]c2ccccc12 [IBR115] | 14.7 | 4.83 | slightly lower | minimal change of activity |  | 
5 | O=S(=O)(Cc1ccccc1)N1C=Cc2ccccc2C1c1c[nH]c2ncccc12 (centres unmarked) [IBR124] | 6.2 | 5.21 | significantly lower |  |  | 
6 | O=S(=O)(Cc1ccccc1)N1CCc2ccccc2[C@@H]1c1n[nH]c2ccccc12 [IBR117, (R)-1-(1H-Indazol-3-yl)-2-phenylmethanesulfonyl-1,2,3,4-tetrahydro-isoquinoline] |  |  | significantly lower |  | 9.5 | 9.55
7 | O=S(=O)(Cc1cccc(C(F)(F)F)c1)N1CCc2ccccc2[C@H]1c1c[nH]c2ccccc12 [IBR112] | 22.2 | 4.65 |  |  |  | 
8 | O=S(=O)(Cc1ccccc1)N1CCc2ccccc2[C@H]1c1c[nH]c2ccccc12 [IBR102] | 13.2 | 4.88 | slightly lower |  |  | 
9 | O=S(=O)(Cc1cccc(C(F)(F)F)c1)N1CCc2ccccc2[C@@H]1c1c[nH]c2ccccc12 [IBR111] | 11.1 | 4.95 | slightly lower |  |  | 
10 | O=S(=O)(Cc1ccccc1)N1CC=Cc2ccccc2[C@H]1c1c[nH]c2ccccc12 [IBR116] | > 50 | ≤ 4.30 |  | almost complete loss of function |  | 
11 | O=S(=O)(Cc1ccccc1C(F)(F)F)N1CCc2ccccc2[C@H]1c1c[nH]c2ccccc12 [IBR110] | 16.7 | 4.78 |  |  |  | 
12 | O=S(=O)(Cc1ccccc1F)N1CCc2ccccc2[C@H]1c1c[nH]c2ccccc12 [IBR104] | 19.2 | 4.72 |  |  |  | 
13 | Nc1ncc([C@@H]2c3ccccc3CCN2S(=O)(=O)Cc2ccccc2)s1 [IBR119, 5-((S)-2-Phenylmethanesulfonyl-1,2,3,4-tetrahydro-isoquinolin-1-yl)thiazol-2-ylamine] |  |  |  |  | > 25 | ≥ 25.1
14 | O=S(=O)(Cc1cccc(F)c1)N1CCc2ccccc2[C@H]1c1c[nH]c2ccccc12 [IBR106] | 17.2 | 4.76 |  |  |  | 
15 | COc1cc2c(C3c4ccccc4C=CN3S(=O)(=O)Cc3ccccc3)c[nH]c2cn1 (centres unmarked) [IBR122] | 12.7 | 4.90 | slightly lower |  |  | 
16 | O=S(=O)(Cc1ccc(C(F)(F)F)cc1)N1CCc2ccccc2[C@@H]1c1c[nH]c2ccccc12 [IBR113] | 13.6 | 4.87 | slightly lower |  |  | 
17 | O=S(=O)(Cc1ccccc1C(F)(F)F)N1CCc2ccccc2[C@@H]1c1c[nH]c2ccccc12 [IBR109] | 14.8 | 4.83 | slightly lower |  |  | 
18 | O=S(=O)(Cc1ccccc1)N1CCc2ccccc2[C@@H]1c1c[nH]c2ccccc12 [IBR101] | 11.7 | 4.93 | slightly lower |  |  | 
19 | O=S(=O)(Cc1ccccc1)N1Cc2ccccc2[C@H]1c1c[nH]c2ccccc12 [IBR121, (S)-3-(2-(benzylsulfonyl)isoindolin-1-yl)-1H-indole] |  |  |  |  | > 12 | ≥ 12
20 | O=S(=O)(Cc1ccccc1F)N1CCc2ccccc2[C@@H]1c1c[nH]c2ccccc12 [IBR103] | 12.7 | 4.90 | slightly lower |  |  | 
21 | COc1nccc2c(C3c4ccccc4C=CN3S(=O)(=O)Cc3ccccc3)c[nH]c12 (racemic) [IBR123] | 6.3 | 5.20 | significantly lower |  |  | 
22 | O=S(=O)(Cc1cccc(F)c1)N1CCc2ccccc2[C@@H]1c1c[nH]c2ccccc12 [IBR105] | 14.2 | 4.85 | slightly lower |  |  | 
23 | O=S(=O)(Cc1ccccc1)N1CCc2ccccc2[C@H]1c1n[nH]c2ccccc12 [IBR118, (S)-1-(1H-Indazol-3-yl)-2-phenylmethanesulfonyl-1,2,3,4-tetrahydro-isoquinoline] |  |  | slightly lower |  | 14.3 | 14.5
